Test results from the CheMixHub viscosity set.

Test: xn = mol fraction of the nth substance listed

OCCNCCO + O=S1(=O)CCCC1
viscosity [mPa·s], 101 kPa
Settings | x2 = 0.0999 | x2 = 0.2999 | x2 = 0.4687 | x2 = 0.6712 | x2 = 0.8322
303.15 K | 262.7 | 125.4 | 63.49 | 14.99 | 12.62
323.15 K | 73.14 | 32.73 | 15.33 | 9.455 | 7.362

COCCOC + O=[N+]([O-])c1ccccc1
298.15 K, 101 kPa
Settings | viscosity [mPa·s]
x1 = 0.1318 | 1.472
x1 = 0.2546 | 1.27
x1 = 0.3693 | 1.087
x1 = 0.4766 | 0.929
x1 = 0.5774 | 0.793
x1 = 0.672 | 0.688
x1 = 0.7612 | 0.599
x1 = 0.8453 | 0.523
x1 = 0.9248 | 0.462

O=C(O)c1ccccc1 + O=[N+]([O-])c1ccccc1
viscosity [mPa·s], 101 kPa
Settings | x1 = 0.09745 | x1 = 0.108 | x1 = 0.139 | x1 = 0.1489 | x1 = 0.175
308.15 K | 1.746 | – | – | – | –
313.15 K | 1.626 | 1.626 | 1.675 | 1.746 | 1.746
318.15 K | 1.503 | – | – | 1.611 | –
323.15 K | 1.397 | – | – | 1.492 | –

c1ccc2ncccc2c1 + OCC(F)(F)F
viscosity [mPa·s], 101.33 kPa
Settings | 298.15 K | 303.15 K | 308.15 K | 313.15 K | 318.15 K | 323.15 K
x1 = 0.16 | 2.34 | 2.05 | 1.84 | 1.62 | 1.46 | 1.32
x1 = 0.34 | 2.91 | 2.57 | 2.27 | 2.04 | 1.83 | 1.65
x1 = 0.54 | 3.14 | 2.79 | 2.46 | 2.21 | 2 | 1.82
x1 = 0.76 | 3.17 | 2.8 | 2.49 | 2.25 | 2.05 | 1.87

COc1ccccc1N + OCCCl
viscosity [mPa·s], 100 kPa
Settings | x1 = 0.1041 | x1 = 0.2448 | x1 = 0.3401 | x1 = 0.4623 | x1 = 0.5621 | x1 = 0.6825 | x1 = 0.7612 | x1 = 0.8484 | x1 = 0.9217
303.15 K | 2.83 | 3.17 | 3.4 | 3.69 | 3.92 | 4.2 | 4.38 | 4.58 | 4.75
308.15 K | 2.5 | 2.83 | 3.05 | 3.33 | 3.55 | 3.82 | 4 | 4.19 | 4.35
313.15 K | 2.11 | 2.44 | 2.67 | 2.96 | 3.19 | 3.47 | 3.65 | 3.85 | 4.01
318.15 K | 1.82 | 2.15 | 2.38 | 2.66 | 2.9 | 3.17 | 3.35 | 3.55 | 3.71
